Assay results reported in patent publication US7799821B2, “Therapeutic compounds” (Allergan, Inc., priority 2004, dated 2010).

Legend:
hTP = biological target: T1, hTP (Homo sapiens, UniProt P21731); experiment: FLIPR calcium signal, hTP; type: cell-based; details: Table 3, third part
T1 construct: expressed in transfected cells; host or cells: HEK-293(EBNA)
T1 sequence (P21731 1-343): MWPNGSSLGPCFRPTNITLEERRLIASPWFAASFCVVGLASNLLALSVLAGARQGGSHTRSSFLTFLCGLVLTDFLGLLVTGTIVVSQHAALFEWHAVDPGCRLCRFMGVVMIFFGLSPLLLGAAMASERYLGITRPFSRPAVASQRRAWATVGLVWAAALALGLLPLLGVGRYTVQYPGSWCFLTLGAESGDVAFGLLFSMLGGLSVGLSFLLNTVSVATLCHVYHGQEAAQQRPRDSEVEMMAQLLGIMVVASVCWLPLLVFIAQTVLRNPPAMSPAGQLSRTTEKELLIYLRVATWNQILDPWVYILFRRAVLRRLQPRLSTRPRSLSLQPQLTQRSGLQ
Procedure: (§1) HEK-293(EBNA) cells, stably expressing one type or subtype of recombinant human prostaglandin receptors (prostaglandin receptors expressed: hDP/Gqs5; hEP1; hEP2/Gqs5; hEP3A/Gqi5; hEP4/Gqs5; hFP; hIP; hTP), were cultured in 100 mm culture dishes in high-glucose DMEM medium containing 10% fetal bovine serum, 2 mM 1-glutamine, 250 μg/ml geneticin (G418) and 200 μg/ml hygromycin B as selection markers, and 100 units/ml penicillin G, 100 μg/ml streptomycin and 0.25 μg/ml amphotericin B. • (b) Calcium Signal Studies on the FLIPR™
(§2) Cells were seeded at a density of 5×10^4 cells per well in Biocoat® Poly-D-lysine-coated black-wall, clear-bottom 96-well plates (Becton-Dickinson) and allowed to attach overnight in an incubator at 37° C. Cells were then washed two times with HBSS-HEPES buffer (Hanks Balanced Salt Solution without bicarbonate and phenol red, 20 mM HEPES, pH 7.4) using a Denley Cellwash plate washer (Labsystems). After 45 minutes of dye-loading in the dark, using the calcium-sensitive dye Fluo-4 AM at a final concentration of 2 μM, plates were washed four times with HBSS-HEPES buffer to remove excess dye leaving 100 μl in each well. Plates were re-equilibrated to 37° C. for a few minutes.
(§3) Cells were excited with an Argon laser at 488 nm, and emission was measured through a 510-570 nm bandwidth emission filter (FLIPR™, Molecular Devices, Sunnyvale, Calif.). Drug solution was added in a 50 μl volume to each well to give the desired final concentration. The peak increase in fluorescence intensity was recorded for each well. On each plate, four wells each served as negative (HBSS-HEPES buffer) and positive controls (standard agonists: BW245C (hDP); PGE2 (hEP1; hEP2/Gqs5; hEP3A/Gqi5; hEP4/Gqs5); PGF2α (hFP); carbacyclin (hIP); U-46619 (hTP), depending on receptor). The peak fluorescence change in each drug-containing well was then expressed relative to the controls.
(§4) Compounds were tested in a high-throughput (HTS) or concentration-response (CoRe) format. In the HTS format, forty-four compounds per plate were examined in duplicates at a concentration of 10^−5 M. To generate concentration-response curves, four compounds per plate were tested in duplicates in a concentration range between 10^−5 and 10^−11 M. The duplicate values were averaged. In either, HTS or CoRe format each compound was tested on at least 3 separate plates using cells from different passages to give an n≧3.

hEP1 = biological target: T2, hEP1 (Homo sapiens, UniProt P34995); experiment: FLIPR calcium signal, hEP1; type: cell-based; details: Table 3, third part
T2 construct: expressed in transfected cells; host or cells: HEK-293(EBNA)
T2 sequence (P34995 1-402): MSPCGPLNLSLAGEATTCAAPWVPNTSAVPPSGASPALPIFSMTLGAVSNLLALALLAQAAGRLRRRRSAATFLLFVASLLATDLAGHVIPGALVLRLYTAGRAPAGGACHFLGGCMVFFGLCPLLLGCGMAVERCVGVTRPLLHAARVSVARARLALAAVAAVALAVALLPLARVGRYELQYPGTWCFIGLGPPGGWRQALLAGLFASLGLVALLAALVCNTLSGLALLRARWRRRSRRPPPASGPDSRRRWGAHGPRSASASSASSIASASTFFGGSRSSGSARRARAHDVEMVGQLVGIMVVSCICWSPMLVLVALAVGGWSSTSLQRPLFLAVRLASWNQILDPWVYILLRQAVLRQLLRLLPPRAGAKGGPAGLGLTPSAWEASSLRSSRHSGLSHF
Procedure: as §1, §2, §3, §4

hEP4/Gqs5 = biological target: T3, hEP4/Gqs5 (Homo sapiens, UniProt P35408); experiment: FLIPR calcium signal, hEP4; type: cell-based; details: Table 3, third part; read-out: Ca2+ Signal-EC50 (nM) EP4
T3 construct: expressed in transfected cells; host or cells: HEK-293(EBNA)
How it was run: (§5)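 HEK-293(EBNA) cells stably expressing the recombinant human receptor were loaded with 2 μM Fluo-4 AM for 45 min and read on FLIPR at 37° C in HBSS-HEPES pH 7.4. Peak fluorescence rise was expressed relative to buffer and standard agonist controls (BW245C, PGE2 or U-46619 by receptor); compounds were run 10^−5 to 10^−11 M in duplicate, n≧3.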

hIP = biological target: T4, hIP (Homo sapiens, UniProt P43119); experiment: FLIPR calcium signal, hIP; type: cell-based; details: Table 3, third part
T4 construct: expressed in transfected cells; host or cells: HEK-293(EBNA)
Procedure: as §1, §2, §3, §4

hFP = biological target: T5, hFP (Homo sapiens, UniProt P43088); experiment: FLIPR calcium signal, hFP; type: cell-based; details: Table 3, third part
T5 construct: expressed in transfected cells; host or cells: HEK-293(EBNA)
Procedure: as §1, §2, §3
Compounds were tested in a high-throughput (HTS) or concentration-response (CoRe) format. […]

Beagle dogs [1] = experiment: Ocular surface hyperemia, dogs; type: in vivo; details: score
Procedure: (§6) Ocular surface hyperemia was visually assessed and scored according to a system typically used clinically.
(§7) Ocular surface hyperemia was evaluated at the same time points as intraocular pressure measurement. It should be noted that untreated dog eyes frequently have a pink/red tone. Thus, values of trace or even mild are not necessarily out of the normal range. Similar tests were used to determine ocular surface hyperemia on monkeys and rabbits.

monkeys = experiment: Intraocular pressure (IOP) in monkeys; type: in vivo; details: Conc. 0.10% (0.1%) g/100 mL
Beagle dogs [2] = experiment: Intraocular pressure (IOP) in dogs, pneumatonometry; type: in vivo; details: topical
Procedure: (§8) Intraocular pressure studies in dogs involved pneumatonometry performed in conscious, Beagle dogs of both sexes (10-15 kg). The animals remained conscious throughout the study and were gently restrained by hand. Drugs were administered topically to one eye as a 25 μL volume drop, the other eye received 25 μL vehicle (0.1% (w/v) polysorbate 80; 10 mM TRIS) as a control. Proparacaine (0.1% w/v) was used for corneal anesthesia during tonometry. Intraocular pressure was determined just before drug administration and at 2, 4 and 6 hr thereafter on each day of the 5 day study. Drug was administered immediately after the first IOP reading.
as §8, with “(0.1%” for “(0.1% (w/v)”, “80:10” for “80; 10”, “(0.1%)” for “(0.1% w/v)”

rabbits = experiment: Ocular surface hyperemia, rabbits; type: in vivo; details: Conc. 0.10% (0.1%) g/100 mL, score
Procedure: as §6, §7

HEP3 = biological target: T6, HEP3 (Homo sapiens, UniProt P43115); experiment: Radioligand binding, EP3; details: printed in the HEP3 binding column; read-out: Ki (marked "Ki" in BINDING HEP3)
T6 sequence (P43115 1-390): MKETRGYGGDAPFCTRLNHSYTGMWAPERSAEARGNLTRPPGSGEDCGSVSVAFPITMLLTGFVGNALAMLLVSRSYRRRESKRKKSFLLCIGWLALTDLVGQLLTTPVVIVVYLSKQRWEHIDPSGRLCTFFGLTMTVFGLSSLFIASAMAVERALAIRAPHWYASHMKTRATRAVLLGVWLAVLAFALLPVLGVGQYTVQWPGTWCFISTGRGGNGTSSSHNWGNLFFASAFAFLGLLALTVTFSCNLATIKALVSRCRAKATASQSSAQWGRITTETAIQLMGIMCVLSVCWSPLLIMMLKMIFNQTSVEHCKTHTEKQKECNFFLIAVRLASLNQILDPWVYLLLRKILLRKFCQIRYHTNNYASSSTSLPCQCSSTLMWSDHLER

hEP2/Gqs5 = biological target: T7, hEP2/Gqs5 (Homo sapiens, UniProt P43116); experiment: FLIPR calcium signal, hEP2; type: cell-based; details: FLIPR Ca2+ signal, HEK-293(EBNA); read-out: FUNCTIONAL EC50 HEP2
T7 construct: expressed in transfected cells; host or cells: HEK-293(EBNA)
How it was run: as §5

T3 sequence (P35408 whole entry): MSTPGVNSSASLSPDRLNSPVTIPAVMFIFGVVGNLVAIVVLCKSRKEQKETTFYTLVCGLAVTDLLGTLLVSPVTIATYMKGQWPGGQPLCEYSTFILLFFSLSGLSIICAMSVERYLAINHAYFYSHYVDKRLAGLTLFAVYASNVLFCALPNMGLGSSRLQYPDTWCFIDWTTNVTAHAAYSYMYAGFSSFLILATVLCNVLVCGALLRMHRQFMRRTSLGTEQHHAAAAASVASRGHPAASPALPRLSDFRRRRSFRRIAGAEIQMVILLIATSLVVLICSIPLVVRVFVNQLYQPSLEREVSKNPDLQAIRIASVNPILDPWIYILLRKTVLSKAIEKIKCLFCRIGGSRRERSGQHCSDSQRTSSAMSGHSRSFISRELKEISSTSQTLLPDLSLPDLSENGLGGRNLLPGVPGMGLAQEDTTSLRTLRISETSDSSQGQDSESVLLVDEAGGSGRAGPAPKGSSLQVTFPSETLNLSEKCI
T5 sequence (P43088 whole entry): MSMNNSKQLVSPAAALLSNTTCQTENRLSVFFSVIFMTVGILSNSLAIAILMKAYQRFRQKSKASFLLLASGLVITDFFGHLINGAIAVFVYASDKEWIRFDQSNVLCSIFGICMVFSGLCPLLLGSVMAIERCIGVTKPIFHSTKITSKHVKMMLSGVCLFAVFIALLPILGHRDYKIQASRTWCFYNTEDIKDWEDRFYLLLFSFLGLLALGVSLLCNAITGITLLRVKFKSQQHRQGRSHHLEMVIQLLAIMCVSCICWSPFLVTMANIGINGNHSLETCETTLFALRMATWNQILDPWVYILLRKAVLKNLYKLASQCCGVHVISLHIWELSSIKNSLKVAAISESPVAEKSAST
T4 sequence (P43119 whole entry): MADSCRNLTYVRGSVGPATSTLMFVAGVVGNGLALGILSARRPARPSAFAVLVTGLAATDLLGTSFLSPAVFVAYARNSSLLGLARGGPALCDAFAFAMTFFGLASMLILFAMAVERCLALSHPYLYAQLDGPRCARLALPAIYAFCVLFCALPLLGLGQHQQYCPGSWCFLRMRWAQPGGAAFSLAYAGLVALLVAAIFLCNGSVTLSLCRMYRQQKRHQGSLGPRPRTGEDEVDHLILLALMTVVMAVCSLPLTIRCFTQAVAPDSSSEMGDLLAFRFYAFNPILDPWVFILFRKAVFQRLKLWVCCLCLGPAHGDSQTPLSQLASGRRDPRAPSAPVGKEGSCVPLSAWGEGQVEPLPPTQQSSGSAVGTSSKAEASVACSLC
T7 sequence (P43116 whole entry): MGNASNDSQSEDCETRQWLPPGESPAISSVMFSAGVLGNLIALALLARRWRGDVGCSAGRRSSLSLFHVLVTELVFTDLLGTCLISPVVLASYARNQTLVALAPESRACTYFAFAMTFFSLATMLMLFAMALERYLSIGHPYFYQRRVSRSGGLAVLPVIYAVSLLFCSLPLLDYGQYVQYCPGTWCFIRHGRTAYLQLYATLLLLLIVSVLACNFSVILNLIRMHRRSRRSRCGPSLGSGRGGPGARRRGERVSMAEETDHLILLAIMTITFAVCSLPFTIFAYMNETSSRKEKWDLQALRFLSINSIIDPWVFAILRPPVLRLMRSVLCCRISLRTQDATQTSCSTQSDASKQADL

Row | SMILES | DOG Max. hyperemia (Beagle dogs [1]; Conc. 0.10% (0.1%) g/100 mL) | RABBIT Max. hyperemia (rabbits) | MONKEY Max. ΔIOP (mm Hg) (monkeys) | DOG Max. ΔIOP (mm Hg) (Beagle dogs [2]; Conc. 0.10% (0.1%) g/100 mL) | other results
1 | CCCCCC(O)c1ccc([C@@H]2[C@@H](C/C=C\CCCC(=O)O)[C@H](Cl)C[C@@H]2Cl)cc1 (stereo partly drawn) |  |  |  |  | Ca2+ Signal-EC50 (nM) TP (hTP): not active; Ca2+ Signal-EC50 (nM) EP1 (hEP1): not active; EC50 (hEP4/Gqs5): 10000 nM; Ca2+ Signal-EC50 (nM) IP (hIP): not active; Ca2+ Signal-EC50 (nM) FP (hFP): not active
2 | CCCCCC(O)c1ccc([C@@H]2[C@@H](C/C=C\CCCC(=O)OC(C)C)[C@H](Cl)C[C@H]2Cl)cc1 (stereo partly drawn) | 0.6 | 0.0 | 19 | −12 | 
3 | CC(C)(CO)c1ccc([C@@H]2[C@@H](C/C=C\CCCC(=O)O)[C@H](Cl)C[C@H]2O)cc1 [drawing 243] |  |  |  |  | DOG Max. hyperemia (Beagle dogs [1]; Conc. 0.30% g/100 mL): 0.9; DOG Max. ΔIOP (mm Hg) (Beagle dogs [2]; Conc. 0.30% g/100 mL): −8 mm Hg
4 | CC(C)C(O)c1ccc([C@@H]2[C@@H](C/C=C\CCCC(=O)O)[C@H](Cl)C[C@H]2O)cc1 (stereo partly drawn) |  |  |  |  | Ki (HEP3): 1340 nM; EC50 (hEP2/Gqs5): 497 nM
5 | CC(C)OC(=O)CCC/C=C\C[C@@H]1[C@@H](c2ccc3c(c2)CCC3O)[C@H](O)C[C@H]1Cl (stereo partly drawn) |  | 0.25 |  | −12 | 

Second part, led by results:

Row | DOG Max. hyperemia (Beagle dogs [1]; Conc. 0.10% (0.1%) g/100 mL) | RABBIT Max. hyperemia (rabbits) | SMILES | MONKEY Max. ΔIOP (mm Hg) (monkeys) | DOG Max. ΔIOP (mm Hg) (Beagle dogs [2]; Conc. 0.10% (0.1%) g/100 mL) | other results
6 | 2.0 |  | CCCCCC(=O)c1ccc([C@@H]2[C@@H](C/C=C\CCCC(=O)O)[C@H](Cl)C[C@H]2O)cc1 | 31 |  | 
7 | 0.7 | 0.1 | CC(C)OC(=O)CCC/C=C\C[C@@H]1[C@@H](c2ccc(C(C)(C)CO)cc2)[C@H](O)C[C@H]1Cl | 6 | −5 | 
8 | 0.9 | 0 | CC(C)(C)c1ccc([C@@H]2[C@@H](CCCCCCC(=O)O)[C@H](Cl)C[C@H]2O)cc1 [drawing 237] |  | −4 | 
